Experimental data from ChEMBL document CHEMBL5537161, “Structure-Guided Design, Synthesis, and Antivirulence Assessment of Covalent Staphylococcus aureus Sortase A Inhibitors” (J Med Chem, 2024).
The source made the active and inactive calls. The calls are words filed in the database; no cut-off is given here.

Columns and labels:
[1] = molecular target: T1, Sortase A (Staphylococcus aureus, UniProt Q9S446, N24DEL); assay: Inhibition of Staphylococcus aureus sortase A N24 deletion mutant using Abz-LPATG-Dnp as substrate preincubated for 20 mins followed by substrate addition by FRET assay
[2] = system: Staphylococcus aureus; assay: Bactericidal activity against Staphylococcus aureus Newman assessed as reduction in bacterial growth incubated for 16 to 18 hrs; type: functional; conditions: time 16-18 hrs
[3] = molecular target: T1, Sortase A; assay: Inhibition of Staphylococcus aureus Sortase A N24 deletion mutant transpeptidation using IsdA64-323 as substrate preincubated for 20 mins followed by substrate addition and measured after 1.5 hrs by SDS-PAGE analysis
[4] = Inhibition of Streptococcus pyogenes Sortase A N81 deletion mutant transpeptidation using IsdA64-323 as substrate preincubated for 20 mins followed by substrate addition and measured after 1.5 hrs by SDS-PAGE analysis
[5] = system: Sortase A (Staphylococcus aureus), Q9S446 [UNDEFINED MUTATION]; assay: Inhibition of Staphylococcus aureus Sortase A N24 deletion mutant transpeptidation assessed as thermal stabilization by measuring change in melting temperature at 80 uM incubated for 15 mins by Nano-DSF assay
[6] = system: Streptococcus pyogenes; assay: Inhibition of Streptococcus pyogenes Sortase A N81 deletion mutant transpeptidation assessed as thermal stabilization by measuring change in melting temperature at 80 uM incubated for 15 mins by Nano-DSF assay
[7] = system: Sortase A (Staphylococcus aureus), Q9S446 [UNDEFINED MUTATION]; assay: Irreversible inhibition of Staphylococcus aureus sortase A N24 deletion mutant preincubated with compound for 1 to 60 mins followed by substrate addition by FRET based assay; conditions: time 1-60 min, TDE = time-dependent effect
[8] = system: Streptococcus pyogenes; assay: Irreversible inhibition of Streptococcus pyogenes Sortase A N81 deletion mutant preincubated with compound for 1 to 60 mins followed by substrate addition by FRET based assay; conditions: time 1-60 min, TDE = time-dependent effect
[9] = molecular target: T1, Sortase A; assay: Covalent inhibition of Staphylococcus aureus sortase A N24 deletion mutant assessed as inactivation constant incubated for 60 mins
[10] = Covalent inhibition of Streptococcus pyogenes Sortase A N81 deletion mutant assessed as inactivation constant incubated for 60 mins
[11] = system: Sortase A (Staphylococcus aureus), Q9S446 [UNDEFINED MUTATION]; assay: Covalent inhibition of Staphylococcus aureus sortase A N24 deletion mutant assessed as inactivation rate constant incubated for 60 mins
[12] = system: Streptococcus pyogenes; assay: Covalent inhibition of Streptococcus pyogenes Sortase A N81 deletion mutant assessed as inactivation rate constant incubated for 60 mins
[13] = system: Sortase A (Staphylococcus aureus), Q9S446 [UNDEFINED MUTATION]; assay: Covalent inhibition of Staphylococcus aureus sortase A N24 deletion mutant assessed as ratio of Kinact to Ki incubated for 60 mins
[14] = system: Streptococcus pyogenes; assay: Covalent inhibition of Streptococcus pyogenes Sortase A N81 deletion mutant assessed as ratio of Kinact to Ki incubated for 60 mins
[15] = molecular target: T2, Cathepsin B (Homo sapiens, UniProt P07858); assay: Inhibition of cathepsin B (unknown origin) using Cbz-Phe-Arg-AMC as substrate preincubated for 5 mins followed by substrate addition by fluorescence based assay
[16] = molecular target: T3, Procathepsin L (Homo sapiens, UniProt P07711); assay: Inhibition of cathepsin L (unknown origin) using Cbz-Phe-Arg-AMC as substrate preincubated for 5 mins followed by substrate addition by fluorescence based assay
Target sequence in this assay (P07711 whole entry): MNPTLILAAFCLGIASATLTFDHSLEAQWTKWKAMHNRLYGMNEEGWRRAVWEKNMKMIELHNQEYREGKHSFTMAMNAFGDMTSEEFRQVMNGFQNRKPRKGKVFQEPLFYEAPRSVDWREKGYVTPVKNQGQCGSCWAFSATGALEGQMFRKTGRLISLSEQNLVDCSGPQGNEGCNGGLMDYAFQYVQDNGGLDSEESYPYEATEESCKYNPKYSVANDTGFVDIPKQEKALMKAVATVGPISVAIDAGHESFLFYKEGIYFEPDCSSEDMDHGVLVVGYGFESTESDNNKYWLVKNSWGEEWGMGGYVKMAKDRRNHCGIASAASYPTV

[17] = molecular target: T2, Cathepsin B; assay: Inhibition of cathepsin B (unknown origin) at 2 uM using Cbz-Phe-Arg-AMC as substrate preincubated for 5 mins followed by substrate addition by fluorescence based assay
[18] = molecular target: T3, Procathepsin L; assay: Inhibition of cathepsin L (unknown origin) at 2 uM using Cbz-Phe-Arg-AMC as substrate preincubated for 5 mins followed by substrate addition by fluorescence based assay
Target sequence in this assay (P07711 114-333 limits assumed): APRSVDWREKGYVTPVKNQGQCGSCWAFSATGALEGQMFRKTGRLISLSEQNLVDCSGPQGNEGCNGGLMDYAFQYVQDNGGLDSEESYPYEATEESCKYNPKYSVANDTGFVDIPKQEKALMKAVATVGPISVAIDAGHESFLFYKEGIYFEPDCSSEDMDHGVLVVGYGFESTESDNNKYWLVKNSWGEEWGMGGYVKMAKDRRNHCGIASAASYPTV

[19] = system: Staphylococcus aureus; assay: Antivirulence activity against Staphylococcus aureus Newman assessed as reduction in abundance of anchored SpA in bacterial envelope by Western blotting analysis; type: functional, organism-based; conditions: dose 6.25-100 µM
[20] = system: Staphylococcus aureus; assay: Antivirulence activity against Staphylococcus aureus Newman assessed as reduction in abundance of Sbi at 6.25 to 100 uM by Western blotting analysis; type: functional, organism-based; conditions: dose 6.25-100 µM
[21] = system: Staphylococcus aureus; assay: Inhibition of Staphylococcus aureus Newman biofilm formation incubated for 14 hrs by Crystal violet staining based assay; type: functional, organism-based; conditions: dose 12.5-100 µM
[22] = system: Staphylococcus aureus; assay: Inhibition of Staphylococcus aureus USA300 biofilm formation incubated for 14 hrs by Crystal violet staining based assay; type: functional, organism-based; conditions: dose 12.5-100 µM
[23] = system: Staphylococcus aureus; assay: Antibacterial activity against Staphylococcus aureus Newman assessed as reduction in bacterial growth at 100 uM incubated for 14 hrs by microplate reader assay; type: functional, organism-based
[24] = system: Staphylococcus aureus; assay: Antibacterial activity against Staphylococcus aureus USA300 assessed as reduction in bacterial growth at 100 uM incubated for 14 hrs by microplate reader assay; type: functional, organism-based
[25] = Toxicity in Galleria mellonella larvae assessed as effect on survival at 60 mg/kg measured after 120 hrs; type: organism-based; conditions: in vivo
[26] = Toxicity in Galleria mellonella larvae assessed as change in appearance at 60 mg/kg measured after 120 hrs; type: organism-based; conditions: in vivo
[27] = Toxicity in Galleria mellonella assessed as change in color at 60 mg/kg measured after 120 hrs; type: organism-based; conditions: in vivo
[28] = system: Staphylococcus aureus; assay: Antibacterial activity against Staphylococcus aureus Newman infected in Galleria mellonella assessed as reduction in melanization at 200 uM pretreated with compound followed by larvae infection measured after 24 hrs; type: functional, organism-based
[29] = system: Staphylococcus aureus; assay: Antibacterial activity against Staphylococcus aureus USA300 infected in Galleria mellonella assessed as reduction in melanization at 200 uM pretreated with compound followed by larvae infection measured after 24 hrs; type: functional, organism-based
[30] = system: Staphylococcus aureus; assay: Antibacterial activity against Staphylococcus aureus Newman infected in Galleria mellonella assessed as increase in larvae survival at 30 mg/kg measured every 24 hrs for 5 days; type: functional; conditions: time 5 day
[31] = system: Staphylococcus aureus; assay: Antibacterial activity against Staphylococcus aureus USA300 infected in Galleria mellonella assessed as increase in larvae survival at 30 mg/kg measured every 24 hrs for 5 days; type: functional; conditions: time 5 day

## O=C1NC(=O)C(=C/C=C/c2ccc(OCc3ccc(F)cc3)cc2)C(=O)N1
[1]
  IC50: 600 nM
[2]
  MIC: > 128 µg/mL
[3]
  IC50: 5200 nM
[4]
  IC50: 4900 nM
[5]
  ΔTm: 4.5 °C
[6]
  ΔTm: 9.3 °C
[7]
  inhibition: Tde
[8]
  inhibition: Tde
[9]
  Ki: 1600 nM
[10]
  Ki: 5400 nM
[11]
  Kinact: 130 min⁻¹
[12]
  Kinact: 1170 min⁻¹
[13]
  Ratio: 216 µM⁻¹ min⁻¹
[14]
  Ratio: 81.1 µM⁻¹ min⁻¹
[15]
  IC50: 36.1 nM
[16]
  IC50: 39.7 nM
[17]
  inhibition: Active
[18]
  inhibition: Active
[19]
  Activity: Active
[20]
  Activity: Active
[21]
  inhibition: Dose-Dependent Effect
[22]
  inhibition: Dose-Dependent Effect
[23]
  Activity: inactive
[24]
  Activity: inactive
[25]
  Activity: Non-Toxic
[26]
  Activity: Non-Toxic
[27]
  Activity: Non-Toxic
[28]
  Activity: Active
[29]
  Activity: Active
[30]
  Activity: 60%
[31]
  Activity: 40%
